According to patent US8093275B2, “Oxazolone and pyrrolidinone-substituted pryidine amides as P2X3 and P2X2/3 antagonists” (Roche Palo Alto LLC, priority 2009, dated 2012):

Key:
rat P2X3 receptor = target: T1, rat P2X3 receptor (Rattus norvegicus, UniProt P49654); assay: P2X3 FLIPR (Fluorometric Imaging Plate Reader) assay; format: cell-based; settings: CHO-K1 cells transfected with rat P2X3; agonist α,β-meATP 1 μM; FLIPR calcium fluorescence; read-out: pKi P2X3 (converted)
T1 construct: expressed in transfected cells; host or cells: CHO-K1
T1 sequence (P49654 1-397): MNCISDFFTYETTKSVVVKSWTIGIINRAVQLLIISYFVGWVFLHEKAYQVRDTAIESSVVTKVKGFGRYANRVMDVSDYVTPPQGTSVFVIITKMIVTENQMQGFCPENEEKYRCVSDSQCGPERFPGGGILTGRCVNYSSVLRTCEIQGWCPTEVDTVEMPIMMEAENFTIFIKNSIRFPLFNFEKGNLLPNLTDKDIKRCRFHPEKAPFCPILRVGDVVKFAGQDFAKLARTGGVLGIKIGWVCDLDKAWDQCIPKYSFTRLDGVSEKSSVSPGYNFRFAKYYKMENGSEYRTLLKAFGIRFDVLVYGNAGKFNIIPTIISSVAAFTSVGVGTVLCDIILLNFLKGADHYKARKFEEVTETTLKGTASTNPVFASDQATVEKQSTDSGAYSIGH
Description: (§1) CHO-K1 cells were transfected with cloned rat P2X3 or human P2X2/3 receptor subunits and passaged in flasks. 18-24 hours before the FLIPR experiment, cells were released from their flasks, centrifuged, and resuspended in nutrient medium at 2.5×10^5 cells/ml. The cells were aliquoted into black-walled 96-well plates at a density of 50,000 cells/well and incubated overnight in 5% CO2 at 37° C. On the day of the experiment, cells were washed in FLIPR buffer (calcium- and magnesium-free Hank's balanced salt solution, 10 mM HEPES, 2 mM CaCl2, 2.5 mM probenecid; FB). Each well received 100 μl FB and 100 μl of the fluorescent dye Fluo-3 AM [2 μM final conc.]. After a 1 hour dye loading incubation at 37° C., the cells were washed 4 times with FB, and a final 75 μl/well FB was left in each well.
(§2) Test compounds (dissolved in DMSO at 10 mM and serially diluted with FB) or vehicle were added to each well (25 μl of a 4× solution) and allowed to equilibrate for 20 minutes at room temperature. The plates were then placed in the FLIPR and a baseline fluorescence measurement (excitation at 488 nm and emission at 510-570 nm) was obtained for 10 seconds before a 100 μl/well agonist or vehicle addition. The agonist was a 2× solution of α,β-meATP producing a final concentration of 1 μM (P2X3) or 5 μM (P2X2/3). Fluorescence was measured for an additional 2 minutes at 1 second intervals after agonist addition. A final addition of ionomycin (5 μM, final concentration) was made to each well of the FLIPR test plate to establish cell viability and maximum fluorescence of dye-bound cytosolic calcium. Peak fluorescence in response to the addition of α,β-meATP (in the absence and presence of test compounds) was measured and inhibition curves generated using nonlinear regression. PPADS, a standard P2X antagonist, was used as a positive control.

human P2X2/3 receptor = target: T2, human P2X2/3 receptor (Homo sapiens, UniProt P56373+Q9UBL9); assay: P2X2/3 FLIPR (Fluorometric Imaging Plate Reader) assay; format: cell-based; settings: CHO-K1 cells transfected with human P2X2/3; agonist α,β-meATP 5 μM; FLIPR calcium fluorescence; read-out: pKi P2X2/3 (converted)
T2 construct: expressed in transfected cells; host or cells: CHO-K1
T2 sequence (Q9UBL9 1-471): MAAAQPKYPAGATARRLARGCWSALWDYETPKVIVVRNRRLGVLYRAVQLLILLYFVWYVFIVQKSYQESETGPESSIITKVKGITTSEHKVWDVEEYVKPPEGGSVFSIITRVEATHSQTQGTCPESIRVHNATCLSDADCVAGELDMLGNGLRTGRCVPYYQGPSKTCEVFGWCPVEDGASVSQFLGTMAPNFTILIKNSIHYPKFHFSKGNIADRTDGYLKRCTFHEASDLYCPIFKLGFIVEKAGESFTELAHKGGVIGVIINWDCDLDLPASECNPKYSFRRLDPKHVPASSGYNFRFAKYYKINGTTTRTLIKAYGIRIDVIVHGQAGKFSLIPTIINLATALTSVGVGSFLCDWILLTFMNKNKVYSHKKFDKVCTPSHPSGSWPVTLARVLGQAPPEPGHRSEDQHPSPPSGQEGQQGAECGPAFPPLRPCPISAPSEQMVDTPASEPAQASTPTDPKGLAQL
T2 sequence (P56373 1-397): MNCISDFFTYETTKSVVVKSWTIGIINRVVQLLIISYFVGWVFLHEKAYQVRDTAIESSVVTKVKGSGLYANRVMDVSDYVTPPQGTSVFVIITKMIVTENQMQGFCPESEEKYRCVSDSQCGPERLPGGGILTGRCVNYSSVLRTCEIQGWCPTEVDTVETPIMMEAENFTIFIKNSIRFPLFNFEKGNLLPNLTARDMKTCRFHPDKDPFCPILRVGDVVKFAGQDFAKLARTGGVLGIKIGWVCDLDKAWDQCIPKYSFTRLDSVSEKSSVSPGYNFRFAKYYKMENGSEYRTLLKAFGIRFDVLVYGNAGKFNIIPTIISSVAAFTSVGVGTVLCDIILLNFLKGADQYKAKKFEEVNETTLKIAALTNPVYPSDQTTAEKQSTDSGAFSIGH
Description: as §1, §2

Row | SMILES | Ki (rat P2X3 receptor) | Ki (human P2X2/3 receptor)
1 | Cc1ccc(-c2cc(C(=O)NCc3cnc(C)cn3)cc(N3C(=O)Cc4ccccc43)c2)cc1 [Compound 53, 4′-Methyl-5-(2-oxo-2,3-dihydro-indol-1-yl)-biphenyl-3-carboxylic acid (5-methyl-pyrazin-2-ylmethyl)-amide] | 7.24 nM | 123 nM
2 | Cc1ccc(-c2cc(C(=O)NCc3cnc(C)cn3)cc(N3C(=O)OC[C@H]3C(C)C)c2)cc1 [Compound 40, 5-((R)-4-Isopropyl-2-oxo-oxazolidin-3-yl)-4′-methyl-biphenyl-3-carboxylic acid (5-methyl-pyrazin-2-ylmethyl)-amide] | 12.3 nM | 38 nM
3 | Cc1ccc(-c2cc(C(=O)NCc3cnc(C)cn3)cc(N3C(=O)OCC34CC4)c2)nc1 [Compound 29, N-(5-Methyl-pyrazin-2-ylmethyl)-3-(5-methyl-pyridin-2-yl)-5-(5-oxo-6-oxa-4-aza-spiro[2.4]hept-4-yl)-benzamide] | 4.37 nM | 129 nM
4 | Cc1ccc(-c2cc(C(=O)N[C@@H](C)CO)cc(N3C(=O)OC[C@H]3C(C)C)c2)nc1 [Compound 9, N-((S)-2-Hydroxy-1-methyl-ethyl)-3-((R)-4-isopropyl-2-oxo-oxazolidin-3-yl)-5-(5-methyl-pyridin-2-yl)-benzamide] | 2.24 nM | 195 nM
5 | Cc1ccc(-c2cc(C(=O)N[C@@H](C)CO)cc(N3C(=O)OC[C@H]3C(C)C)c2)cc1 [Compound 38, 5-((R)-4-Isopropyl-2-oxo-oxazolidin-3-yl)-4′-methyl-biphenyl-3-carboxylic acid ((S)-2-hydroxy-1-methyl-ethyl)-amide] | 2.19 nM | 79.4 nM
6 | CCC1COC(=O)N1c1cc(C(=O)NCc2cnc(C)cn2)cc(-c2ccc(C)cn2)c1 (stereo not drawn) [Compound 19, 3-(4-Ethyl-2-oxo-oxazolidin-3-yl)-N-(5-methyl-pyrazin-2-ylmethyl)-5-(5-methyl-pyridin-2-yl)-benzamide] | 4.27 nM | 66.1 nM
7 | Cc1ccc(-c2cc(C(=O)NC(C)c3cnccn3)cc(N3C(=O)OC[C@H]3C(C)C)c2)c(F)c1 (stereo partly drawn) [Compound 47, 2′-Fluoro-5-((R)-4-isopropyl-2-oxo-oxazolidin-3-yl)-4′-methyl-biphenyl-3-carboxylic acid (1-pyrazin-2-yl-ethyl)-amide] | 12.6 nM | 44.7 nM
8 | Cc1ccc(-c2cc(C(=O)NCc3cnc(C)cn3)cc(N3C(=O)OC[C@H]3C(C)C)c2)nc1 [Compound 11, 3-((R)-4-Isopropyl-2-oxo-oxazolidin-3-yl)-N-(5-methyl-pyrazin-2-ylmethyl)-5-(5-methyl-pyridin-2-yl)-benzamide] | 3.98 nM | 20.4 nM
9 | Cc1ccc(-c2cc(C(=O)NCc3cnc(C)cn3)cc(-n3c(=O)oc4ccccc43)c2)cc1 [Compound 51, 4′-Methyl-5-(2-oxo-benzooxazol-3-yl)-biphenyl-3-carboxylic acid (5-methyl-pyrazin-2-ylmethyl)-amide] | 11 nM | 31.6 nM
10 | Cc1ccc(-c2cc(C(=O)NCc3cnc(C)nc3)cc(-n3c(=O)oc4ccccc43)c2)nc1 [Compound 33, 3-(5-Methyl-pyridin-2-yl)-N-(2-methyl-pyrimidin-5-ylmethyl)-5-(2-oxo-benzooxazol-3-yl)-benzamide] | 6.17 nM | 13.8 nM
11 | Cc1ccc(-c2cc(C(=O)NC3CC3)cc(N3C(=O)OC[C@H]3C(C)C)c2)c(F)c1 [Compound 49, 2′-Fluoro-5-((R)-4-isopropyl-2-oxo-oxazolidin-3-yl)-4′-methyl-biphenyl-3-carboxylic acid cyclopropylamide] | 8.91 nM | 123 nM
12 | Cc1ccc(-c2cc(C(=O)N[C@@H](C)CO)cc(-n3c(=O)oc4ccccc43)c2)nc1 [Compound 3, N-((S)-2-Hydroxy-l-methyl-ethyl)-3-(5-methyl-pyridin-2-yl)-5-(2-oxo-benzooxazol-3-yl)-benzamide] | 3.31 nM | 234 nM
13 | Cc1ccc(-c2cc(C(=O)NC(C)c3cnccn3)cc(-n3c(=O)oc4ccccc43)c2)nc1 (stereo not drawn) [Compound 2, 3-(5-Methyl-pyridin-2-yl)-5-(2-oxo-benzooxazol-3-yl)-N-(1-pyrazin-2-yl-ethyl)-benzamide] | 3.09 nM | 28.2 nM
14 | Cc1ccc(-c2cc(C(=O)NCc3cnc(C)cn3)cc(N3C(=O)Cc4ccccc43)c2)nc1 [Compound 5, N-(5-Methyl-pyrazin-2-ylmethyl)-3-(5-methyl-pyridin-2-yl)-5-(2-oxo-2,3-dihydro-indol-1-yl)-benzamide] | 8.91 nM | 89.1 nM

Results, then the compound that gave them:

Row | Ki (rat P2X3 receptor) | Ki (human P2X2/3 receptor) | SMILES
15 | 5.62 nM | 85.1 nM | Cc1ccc(-c2cc(C(=O)NCc3ccc(C)nn3)cc(N3C(=O)OCC3(C)C)c2)nc1 [Compound 31, 3-(4,4-Dimethyl-2-oxo-oxazolidin-3-yl)-N-(6-methyl-pyridazin-3-ylmethyl)-5-(5-methyl-pyridin-2-yl)-benzamide]
16 | 263 nM | 7590 nM | Cc1ccc(-c2cc(C(=O)NC(C)c3cnccn3)cc(N3C(=O)OC[C@@H]3C(C)C)c2)cc1 (stereo partly drawn) [Compound 45, 5-((S)-4-Isopropyl-2-oxo-oxazolidin-3-yl)-4′-methyl-biphenyl-3-carboxylic acid (1-pyrazin-2-yl-ethyl)-amide]
17 | 6.31 nM | 123 nM | Cc1ccc(-c2cc(C(=O)NC(C)c3cnccn3)cc(N3C(=O)OCC3(C)C)c2)nc1 (stereo not drawn) [Compound 20, 3-(4,4-Dimethyl-2-oxo-oxazolidin-3-yl)-5-(5-methyl-pyridin-2-yl)-N-(1-pyrazin-2-yl-ethyl)-benzamide]
18 | 38.9 nM | 7760 nM | Cc1ccc(-c2cc(C(=O)NC(C)c3cnccn3)cc(N3C(=O)CCC3C)c2)nc1 (stereo not drawn) [Compound 27, 3-(2-Methyl-5-oxo-pyrrolidin-1-yl)-5-(5-methyl-pyridin-2-yl)-N-(1-pyrazin-2-yl-ethyl)-benzamide]
19 | 13.2 nM | 38 nM | Cc1ccc(-c2cc(C(=O)NCc3cnc(C)cn3)cc(N3C(=O)OC[C@H]3C(C)C)c2)c(F)c1 [Compound 48, 2′-Fluoro-5-((R)-4-isopropyl-2-oxo-oxazolidin-3-yl)-4′-methyl-biphenyl-3-carboxylic acid (5-methyl-pyrazin-2-ylmethyl)-amide]
20 | 4.07 nM | 191 nM | Cc1ccc(-c2cc(C(=O)NC(C)c3cnccn3)cc(-n3c(=O)[nH]c4ccccc43)c2)nc1 (stereo not drawn) [Compound 4, 3-(5-Methyl-pyridin-2-yl)-5-(2-oxo-2,3-dihydro-benzoimidazol-1-yl)-N-(1-pyrazin-2-yl-ethyl)-benzamide]
21 | 8.51 nM | 263 nM | Cc1ccc(-c2cc(C(=O)NCc3cccnn3)cc(-n3c(=O)oc4ccccc43)c2)nc1 [Compound 14, 3-(5-Methyl-pyridin-2-yl)-5-(2-oxo-benzooxazol-3-yl)-N-pyridazin-3-ylmethyl-benzamide]
